Legend:
[1] = system: Daudi non-Hodgkin lymphoma xenograft model; parameters: method as in PMID 22693356; conditions: cited from earlier work
PC-3 cells = test: Anti-proliferative MTT assay; type: cell-based; conditions: Homo sapiens, 96 h incubation, mean of three experiments
Description: As Mnks and HDACs are overexpressed in prostate cancer, the GI50 values of the target compounds against PC-3 cell line were determined by an MTT assay. […] When the zinc-binding motif was hydroxamic acid, the anti-proliferative effect was better than o-phenylenediamine (except A03 and A04). The length of the flexible linker has a significant influence on the anti-proliferative activity: compounds containing a NH unite and 6 methylene groups were greatly better than compounds containing a NH unite and 5 methylene groups (A11 vs. A12).
The human prostatic cancer PC-3 cell line was cultured in RPMI1640 with 10% (v/v) heat-inactivated fetal bovine serum. The anti-proliferative activity of synthetic compounds were evaluated by the methylthiazolyltetrazolium bromide (MTT) assay. Cells (2 × 10^4 cells/well) were incubated in a humidified atmosphere with 5% CO2 at 37 °C for 24 h, then various concentrations of each compound mixed in […] medium were added to each well. After incubated for another 96 h, MTT solution (50 μL of 2 mg/mL) was added to each well and incubated for an additional 4 h. The medium was removed by aspiration and the cells were dissolved in […] DMSO. The absorbance at 570 nm was measured in the 96-well plate reader. Growth inhibition was calculated and expressed as the ratio of the cell number in the treated group to that of the untreated group. The GI50 values were calculated according to inhibition ratios. All experiments were performed three times independently, and the results were reported presented as the mean.

Mnk2 = Mnk2 (Homo sapiens, UniProt Q9HBH9); test: Mnks inhibition HTRF assay (Mnk2); type: biochemical; conditions: compound at 1 μM, 39.2 µM ATP, mean of triple independent experiments, read-out: %inhib. 1 μM Mnk2
Mnk2, sequence (Q9HBH9 whole entry): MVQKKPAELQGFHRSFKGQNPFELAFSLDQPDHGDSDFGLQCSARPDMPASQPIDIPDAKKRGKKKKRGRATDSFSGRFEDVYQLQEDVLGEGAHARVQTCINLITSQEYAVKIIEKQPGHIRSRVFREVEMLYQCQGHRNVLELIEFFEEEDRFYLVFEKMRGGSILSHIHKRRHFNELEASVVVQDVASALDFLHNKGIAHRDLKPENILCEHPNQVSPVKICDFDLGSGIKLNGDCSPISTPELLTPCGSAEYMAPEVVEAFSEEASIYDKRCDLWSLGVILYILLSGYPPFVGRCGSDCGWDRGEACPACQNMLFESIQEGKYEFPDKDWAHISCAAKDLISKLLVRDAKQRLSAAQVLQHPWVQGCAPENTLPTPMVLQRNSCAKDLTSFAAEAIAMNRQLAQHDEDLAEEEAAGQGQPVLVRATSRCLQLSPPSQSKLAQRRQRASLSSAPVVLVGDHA
Description: (§1) To investigate the HDAC and Mnk inhibitory potency of the target compounds, the inhibition rate of Mnk1 and Mnk2 at 1 μM were determined using homogeneous time-resolved fluorescence assay (HTRF) and the IC50 value against HDAC was determined by fluorescence analysis.
1.00 ng of Mnk1 or Mnk2 was incubated with different concentrations (10,000 nM, 1000 nM, 100 nM, 10 nM, and 1 nM) of test compounds in an 10 µL reaction mixture (Mnk1: 1 µM substrate S1, 10 mM MgCl2, 121 µM ATP, 1 × KinEASE enzymatic buffer and 1 mM dithiothreitol (DTT Mnk2: 1 µM substrate S1, 10 mM MgCl2, 39.2 µM ATP, 1 × KinEASE enzymatic buffer and 1 mM DTT for 60 min at 25 °C. The mixture of 5 µL SA-XL665 and 5 µL STK Ab detection reagents following the kit protocol was added to terminate the reaction.

HDACs = HDACs inhibition fluorescence assay (HeLa nuclear extracts); type: biochemical; conditions: substrate Boc-Lys(Ac)-AMC, mean of duplicate experiments
Description: as §1
The general procedure for the enzyme assay was carried out according to the published protocol with slight modification. For the HDACs assay, HeLa nuclear extracts (Enzo Life Sciences, NY, USA) were used as a source of histone deacetylase. All reactions were performed in the black half area 96-well microplates. A serial dilution of the inhibitors and enzymes were pre-incubated at 25 °C for 15 min, and then fluorogenic substrate Boc-Lys(Ac)-AMC was added. After incubation at 37 °C for 60 min, the mixture was stopped by the addition of […] of developer containing trypsin and vorinostat for 10 min. Fluorescence intensity was measured using a Varioskan Flash Station (Thermo Scientific, MA, USA) at excitation and emission wavelengths of 355 (or 360 for the HeLa NuEx) and 460 nm, respectively. The IC50 values were extracted by curve fitting the dose/response slopes.

Mnk1 = molecular target: T1, Mnk1 (Homo sapiens, UniProt Q9BUB5); test: Mnks inhibition HTRF assay (Mnk1); type: biochemical; conditions: compound at 1 μM, 121 µM ATP, mean of triple independent experiments, read-out: %inhib. 1 μM Mnk1
T1 construct: 1.00 ng of Mnk1 or Mnk2 was incubated with different concentrations
T1 sequence (Q9BUB5 whole entry): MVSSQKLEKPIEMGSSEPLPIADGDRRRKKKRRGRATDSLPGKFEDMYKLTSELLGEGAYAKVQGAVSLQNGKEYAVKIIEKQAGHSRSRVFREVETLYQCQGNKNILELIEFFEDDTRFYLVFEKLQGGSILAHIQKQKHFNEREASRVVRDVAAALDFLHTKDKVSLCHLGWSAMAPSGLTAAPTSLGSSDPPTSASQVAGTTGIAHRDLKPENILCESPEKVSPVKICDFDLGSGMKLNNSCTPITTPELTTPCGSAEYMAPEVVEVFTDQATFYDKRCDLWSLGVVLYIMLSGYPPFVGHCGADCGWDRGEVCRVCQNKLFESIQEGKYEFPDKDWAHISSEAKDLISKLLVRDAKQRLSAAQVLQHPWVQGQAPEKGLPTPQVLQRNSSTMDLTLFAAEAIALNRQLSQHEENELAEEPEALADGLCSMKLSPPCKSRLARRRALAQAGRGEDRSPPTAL

| GI50 (PC-3 cells) | melting point | inhibition at 1 µM (Mnk2) | IC50 (HDACs) | inhibition at 1 µM (Mnk1) | SMILES | tumor growth ([1]; Daudi non-Hodgkin lymphoma xenograft model) | Ac-H3 and p-AKT levels ([1]; in vivo anti-tumor activity studies) |
| --- | --- | --- | --- | --- | --- | --- | --- |
| > 20 µM | 187.6 to 189.5 °C | 61% | 0.18 µM | 49% | O=C(CCCCCNc1ccc2ncnc(Nc3ccc(F)cc3)c2n1)NO [Compound A11, 6-((4-((4-Fluorophenyl)amino)pyrido[3,2-d]pyrimidin-6-yl)amino)-N-hydroxyhexanamide] | – | – |
| 4.38 µM | 185.5 to 187 °C | 34% | 0.037 µM | 29% | CNC(=O)c1cc(F)ccc1Nc1ncnc2ccc(NCCCCCCC(=O)NO)nc12 [Compound A16, 5-Fluoro-2-((6-((7-(hydroxyamino)-7-oxoheptyl)amino)pyrido[3,2-d]pyrimidin-4-yl)amino)-N-methylbenzamide] | – | – |
| > 20 µM | 188.8 to 191.7 °C | 23% | 0.16 µM | 29% | O=C(CCCCCCNc1ccc2ncnc(Nc3ccc(F)cc3F)c2n1)NO [Compound A17, 7-((4-((2,4-Difluorophenyl)amino)pyrido[3,2-d]pyrimidin-6-yl)amino)-N-hydroxyheptanamide] | – | – |
| > 20 µM | 207.9 to 208.5 °C | 56% | 1.18 µM | 16% | O=C(CCCCCCNc1ccc2ncnc(Nc3ccc(F)c(Cl)c3)c2n1)NO [Compound A19, 7-((4-((3-Chloro-4-fluorophenyl)amino)pyrido[3,2-d]pyrimidin-6-yl)amino)-N-hydroxyheptanamide] | – | – |

More lines, now with the values behind:

| SMILES | GI50 (PC-3 cells) | melting point | inhibition at 1 µM (Mnk2) | IC50 (HDACs) | inhibition at 1 µM (Mnk1) | tumor growth ([1]; Daudi non-Hodgkin lymphoma xenograft model) | Ac-H3 and p-AKT levels ([1]; in vivo anti-tumor activity studies) |
| --- | --- | --- | --- | --- | --- | --- | --- |
| COc1ccc(-c2nc(N3CCOCC3)c3sc(CN(C)c4ncc(C(=O)NO)cn4)cc3n2)cn1 [CUDC-907] | – | – | – | – | – | inhibited tumor growth in a dose-dependent manner | accumulation of Ac-H3 and a decrease in p-AKT levels |
| Nc1ccccc1NC(=O)CCCCCNc1ccc2ncnc(Nc3ccc(F)cc3)c2n1 [Compound A05, N-(2-Aminophenyl)-6-((4-((4-fluorophenyl)amino)pyrido[3,2-d]pyrimidin-6-yl)amino)hexanamide] | > 20 µM | 209.5 to 211.5 °C | 44% | > 10 µM | 30% | – | – |
| Nc1ccccc1NC(=O)CCCCCCNc1ccc2ncnc(Nc3ccc(F)cc3)c2n1 [Compound A06, N-(2-Aminophenyl)-7-((4-((4-fluorophenyl)amino)pyrido[3,2-d]pyrimidin-6-yl)amino)heptanamide] | > 20 µM | 125.6 to 127 °C | 38% | > 10 µM | 29% | – | – |
| O=C(NO)c1ccc(-c2ccc3ncnc(Nc4ccc(F)cc4)c3n2)cc1 [Compound A07, 4-(4-((4-Fluorophenyl)amino)pyrido[3,2-d]pyrimidin-6-yl)-N-hydroxybenzamide] | 11.4 µM | 249 to 251.8 °C | 22% | > 10 µM | 8% | – | – |
| O=C(/C=C/c1ccc(-c2ccc3ncnc(Nc4ccc(F)cc4)c3n2)cc1)NO [Compound A08, (E)-3-(4-(4-((4-Fluorophenyl)amino)pyrido[3,2-d]pyrimidin-6-yl)phenyl)-N-hydroxyacrylamide] | 4.02 µM | 178.1 to 180 °C | 7% | > 10 µM | 25% | – | – |
| O=C(NO)c1ccc(CNc2ccc3ncnc(Nc4ccc(F)cc4)c3n2)cc1 [Compound A10, 4-(((4-((4-Fluorophenyl)amino)pyrido[3,2-d]pyrimidin-6-yl)amino)methyl)-N-hydroxybenzamide] | 18.3 µM | 197.7 to 199.3 °C | 43% | 2.18 µM | 24% | – | – |

Reference: paper PMC7571151, “Design, Synthesis and Bioactivity Evaluation of 4,6-Disubstituted Pyrido[3,2-d]pyrimidine Derivatives as Mnk and HDAC Inhibitors” (Molecules, 2020)
